Our source for the IC50 values is patent US20230278981A1, “DICHLOROPHENOL HSD17B13 INHIBITORS AND USES THEREOF” (INIPHARM, INC., priority 2020, published 2023).

Each structure is given as a SMILES string.

The target of this test is HSD17B13 (Homo sapiens (Human), UniProt Q7Z5P4). Briefly: LC/MS estrone detection assay: conversion of estradiol to estrone by HSD17B13. The settings on record: 4 μM estradiol, 6 mM NAD+, 30 nM HSD17B13 enzyme (E. coli expressed His-tagged), 2 hours at 26.5° C. Type of test: biochemical. An outline of the steps:
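His-tagged E. coli-expressed HSD17B13 (30 nM) with 4 μM estradiol and 6 mM NAD+ in 1 M potassium phosphate pH 7.4, 0.5% DMSO, 2 h at 26.5° C. Estrone and estradiol quantified by LC-MS/MS after MeCN quench with D4-estrone internal standard; activity as % of uninhibited enzyme, IC50 by four-parameter fit, duplicates.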

Sequence of HSD17B13 (Q7Z5P4 20-300): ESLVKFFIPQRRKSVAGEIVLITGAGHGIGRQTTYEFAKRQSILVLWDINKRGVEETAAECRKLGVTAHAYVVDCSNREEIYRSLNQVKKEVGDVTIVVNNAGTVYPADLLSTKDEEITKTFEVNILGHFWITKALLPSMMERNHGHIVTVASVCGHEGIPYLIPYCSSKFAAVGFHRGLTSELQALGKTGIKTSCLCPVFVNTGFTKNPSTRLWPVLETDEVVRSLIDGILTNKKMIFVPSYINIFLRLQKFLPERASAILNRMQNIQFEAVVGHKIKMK

Take `O=C(Nc1ncsc1C(=O)NCC1CCC(F)(F)CC1)c1cc(Cl)c(O)c(Cl)c1` [Example 30, 4-(3,5-dichloro-4-hydroxybenzamido)-N-((4,4-difluorocyclohexyl)methyl) thiazole-5-carboxamide]: the IC50 (as a rule, the point on the concentration scale where inhibition reaches its midpoint) lay in the range of 500 to 1000 nM.

For the compound `Cc1ccc(NC(=O)c2cc(Cl)c(O)c(Cl)n2)c2c(=O)n([C@@H]3CC[C@H]3c3ccccc3)c(C)nc12` [Example 202, 4,6-dichloro-N-(2,8-dimethyl-4-oxo-3-((1R,2S)-2-phenylcyclobutyl)-3,4-dihydroquinazolin-5-yl)-5-hydroxypicolinamide], the concentration for half-maximal inhibition (IC50) fell in the range of 100 to 500 nM.

`CS(=O)(=O)c1ccccc1Cn1cnc2cccc(NC(=O)c3cc(Cl)c(O)c(Cl)c3)c2c1=O` [Example 51, 3,5-dichloro-4-hydroxy-N-(3-(2-(methylsulfonyl)benzyl)-4-oxo-3,4-dihydroquinazolin-5-yl)benzamide.] returned an IC50 of 100 to 500 nM.

Consider `Cc1nc2c(Cl)ccc(NC(=O)c3cc(Cl)c(O)c(Cl)c3)c2c(=O)n1Cc1ccccc1C(F)(F)F` [Example 156, 3,5-dichloro-N-(8-chloro-2-methyl-4-oxo-3-(2-(trifluoromethyl)benzyl)-3,4-dihydroquinazolin-5-yl)-4-hydroxybenzamide], for which the IC50 was no more than 100 nM.

In the case of `[2H]C([2H])([2H])c1nc2c(C)ccc(NC(=O)c3cc(Cl)c(O)c(Cl)n3)c2c(=O)n1Cc1ccccc1C(F)(F)F` [Example 180, 4,6-dichloro-5-hydroxy-N-(8-methyl-2-(methyl-d3)-4-oxo-3-(2-(trifluoromethyl)benzyl)-3,4-dihydroquinazolin-5-yl)picolinamide], the concentration for half-maximal inhibition (IC50) lay within 100 to 500 nM.

`Cc1nc2c(F)ccc(NC(=O)c3cc(Cl)c(O)c(Cl)n3)c2c(=O)n1Cc1ncccc1C(F)(F)F` [Example 155, 4,6-dichloro-N-(8-fluoro-2-methyl-4-oxo-3-((3-(trifluoromethyl)pyridin-2-yl)methyl)-3,4-dihydroquinazolin-5-yl)-5-hydroxypicolinamide] had an IC50 of 100 to 500 nM.

`O=C(Nc1cnccc1C(=O)NCc1ccccc1OC(F)(F)F)c1cc(Cl)c(O)c(Cl)c1` [Example 73, 3-(3,5-dichloro-4-hydroxybenzamido)-N-(2-(trifluoromethoxy)benzyl) isonicotinamide] gave an IC50 of 100 to 500 nM.

`O=C(Nc1ccc(F)c2ncn(Cc3ccccc3OC(F)(F)F)c(=O)c12)c1cc(Cl)c(O)c(Cl)c1` [Example 132, 3,5-dichloro-N-(8-fluoro-4-oxo-3-{[2-(trifluoromethoxy)phenyl]methyl}-3,4-dihydroquinazolin-5-yl)-4-hydroxybenzamide] displayed a half-inhibitory concentration (IC50) of no more than 100 nM.

For `O=C(Nc1cccc2ncn(Cc3n[nH]c4ccccc34)c(=O)c12)c1cc(Cl)c(O)c(Cl)c1` [Example 67, N-(3-((1H-indazol-3-yl)methyl)-4-oxo-3,4-dihydroquinazolin-5-yl)-3,5-dichloro-4-hydroxybenzamide], the 50% inhibitory concentration (IC50) was no more than 100 nM.

In turn, `Cc1ccc(NC(=O)c2cc(Cl)c(O)c(Cl)c2)c2c(=O)n(Cc3ccccc3C(F)(F)F)c(C(F)F)nc12` [Example 167, 3,5-dichloro-N-(2-(difluoromethyl)-8-methyl-4-oxo-3-(2-(trifluoromethyl)benzyl)-3,4-dihydroquinazolin-5-yl)-4-hydroxybenzamide] returned a half-maximal inhibitory concentration (IC50) of no more than 100 nM.

For the compound `O=C(Nc1cccc2ncn(Cc3cccnc3F)c(=O)c12)c1cc(Cl)c(O)c(Cl)c1` [Example 137, 3,5-dichloro-N-{3-[(2-fluoropyridin-3-yl)methyl]-4-oxo-3,4-dihydroquinazolin-5-yl}-4-hydroxybenzamide], the half-maximal inhibitory concentration (IC50) fell in the range of 100 to 500 nM.

Compound `O=C(Nc1csc2ncn(Cc3ccccc3)c(=O)c12)c1cc(Cl)c(O)c(Cl)c1` [Example 97, N-(3-benzyl-4-oxo-3,4-dihydrothieno[2,3-d]pyrimidin-5-yl)-3,5-dichloro-4-hydroxybenzamide] gave a concentration for half-maximal inhibition (IC50) of 100 to 500 nM.

Compound `O=C(Nc1sc(C(F)(F)F)nc1C(=O)NCc1ccccc1OC(F)(F)F)c1cc(Cl)c(O)c(Cl)c1` [Example 125, 5-(3,5-dichloro-4-hydroxybenzamido)-N-(2-(trifluoromethoxy)benzyl)-2-(trifluoromethyl)thiazole-4-carboxamide] displayed a 50% inhibitory concentration (IC50) of 100 to 500 nM.

On to `[2H]C([2H])(c1ccccc1C(F)(F)F)n1c(C)nc2c(C)ccc(NC(=O)c3cc(Cl)c(O)c(Cl)c3)c2c1=O` [Example 200, 3,5-dichloro-N-(2,8-dimethyl-4-oxo-3-((2-(trifluoromethyl)phenyl)methyl-d2)-3,4-dihydroquinazolin-5-yl)-4-hydroxybenzamide], for which the IC50 is no more than 100 nM.

For `O=C(Nc1ncsc1C(=O)NCCc1ccccc1C(F)(F)F)c1cc(Cl)c(O)c(Cl)c1` [Example 25, 4-(3,5-dichloro-4-hydroxybenzamido)-N-(2-(trifluoromethyl)phenethyl) thiazole-5-carboxamide], the IC50 was 100 to 500 nM.

Compound `Cn1nc(CNC(=O)c2ncsc2NC(=O)c2cc(Cl)c(O)c(Cl)c2)c2ccccc21` [Example 188, 5-(3,5-dichloro-4-hydroxybenzamido)-N-((1-methyl-1H-indazol-3-yl)methyl)thiazole-4-carboxamide] came in with a 50% inhibitory concentration (IC50) of no more than 100 nM.

Take `O=C(Nc1ccc(F)c2ncn(Cc3ccccc3C(F)(F)F)c(=O)c12)c1cc(Cl)c(O)c(Cl)c1` [Example 204, 3,5-dichloro-N-(8-fluoro-4-oxo-3-(2-(trifluoromethyl)benzyl)-3,4-dihydroquinazolin-5-yl)-4-hydroxybenzamide]: the IC50 is no more than 100 nM.

With `O=C(Nc1cccc2ncn(Cc3ccccc3C(F)(F)F)c(=O)c12)c1cc(Cl)c(O)c(Cl)n1` [Example 43, 4,6-dichloro-5-hydroxy-N-(4-oxo-3-(2-(trifluoromethyl)benzyl)-3,4-dihydroquinazolin-5-yl)picolinamide], the half-maximal inhibitory concentration (IC50) is no more than 100 nM.

Compound `O=C(Nc1cccc2ncn(Cc3ccncc3F)c(=O)c12)c1cc(Cl)c(O)c(Cl)c1` [Example 13, 3,5-dichloro-N-(3-((3-fluoropyridin-4-yl)methyl)-4-oxo-3,4-dihydroquinazolin-5-yl)-4-hydroxybenzamide] came in with a 50% inhibitory concentration (IC50) of 500 to 1000 nM.

The compound `O=C(Nc1cccc2ncn(Cc3ccccc3N3CCOCC3)c(=O)c12)c1cc(Cl)c(O)c(Cl)c1` [Example 84, 3,5-dichloro-4-hydroxy-N-(3-(2-morpholinobenzyl)-4-oxo-3,4-dihydroquinazolin-5-yl)benzamide] registered an IC50 of no more than 100 nM.

In turn, `Cc1ccc(NC(=O)c2cc(Cl)c(O)c(Cl)c2)c2c(=O)n(Cc3cccnc3C(F)(F)F)c(C)nc12` [Example 142, 3,5-dichloro-N-(2,8-dimethyl-4-oxo-3-((2-(trifluoromethyl)pyridin-3-yl)methyl)-3,4-dihydroquinazolin-5-yl)-4-hydroxybenzamide] gave an IC50 of 100 to 500 nM.

`O=C(Nc1scnc1C(=O)NCc1ccccc1C(F)(F)F)c1cc(Cl)c(O)c(Cl)c1` [Example 182, 5-(3,5-dichloro-4-hydroxybenzamido)-N-(2-(trifluoromethyl)benzyl)thiazole-4-carboxamide] returned an IC50 of no more than 100 nM.

The compound `O=C(Nc1scnc1C(=O)NCc1cccc(C(F)(F)F)n1)c1cc(Cl)c(O)c(Cl)c1` [Example 198, 5-(3,5-dichloro-4-hydroxybenzamido)-N-((6-(trifluoromethyl)pyridin-2-yl)methyl)thiazole-4-carboxamide] returned an IC50 of 500 to 1000 nM.

The compound `O=C(Nc1cccc2ncn(C3(c4ccccc4F)CC3)c(=O)c12)c1cc(Cl)c(O)c(Cl)n1` [Example 72, 4,6-dichloro-N-(3-(1-(2-fluorophenyl)cyclopropyl)-4-oxo-3,4-dihydroquinazolin-5-yl)-5-hydroxypicolinamide] yielded a half-maximal inhibitory concentration (IC50) of 100 to 500 nM.

Compound `O=C(Nc1ccc(OCCO)cc1C(=O)NCc1ccccc1OC(F)(F)F)c1cc(Cl)c(O)c(Cl)c1` [Example 86, 3,5-dichloro-4-hydroxy-N-(4-(2-hydroxyethoxy)-2-((2-(trifluoromethoxy)benzyl)carbamoyl)phenyl)benzamide] registered an IC50 of 100 to 500 nM.

For `Cc1nsc(NC(=O)c2cc(Cl)c(O)c(Cl)n2)c1C(=O)N[C@@H](C)c1ccccc1F` [Example 115, (S)-5-(4,6-dichloro-5-hydroxypicolinamido)-N-(1-(2-fluorophenyl)ethyl)-3-methylisothiazole-4-carboxamide], the IC50 was in the range of 100 to 500 nM.

The compound `Cc1nc2c(F)ccc(NC(=O)c3cc(Cl)c(O)c(Cl)c3)c2c(=O)n1Cc1ncccc1C(F)(F)F` [Example 154, 3,5-dichloro-N-(8-fluoro-2-methyl-4-oxo-3-((3-(trifluoromethyl)pyridin-2-yl)methyl)-3,4-dihydroquinazolin-5-yl)-4-hydroxybenzamide] registered an IC50 of no more than 100 nM.

On to `O=C(Nc1cccc2ncn(C3(c4ccccc4)CC3)c(=O)c12)c1cc(Cl)c(O)c(Cl)c1` [Example 20, 3,5-dichloro-4-hydroxy-N-(4-oxo-3-(1-phenylcyclopropyl)-3,4-dihydroquinazolin-5-yl) benzamide], for which the concentration for half-maximal inhibition (IC50) is 1000 to 10000 nM.

`N#Cc1ccccc1Cn1cnc2cccc(NC(=O)c3cc(Cl)c(O)c(Cl)n3)c2c1=O` [Example 66, 4,6-dichloro-N-(3-(2-cyanobenzyl)-4-oxo-3,4-dihydroquinazolin-5-yl)-5-hydroxypicolinamide] came in with an IC50 of 100 to 500 nM.

The compound `Cc1ccc(NC(=O)c2cc(Cl)c(O)c(Cl)c2)c2c(=O)n(Cc3ncccc3C(F)(F)F)c(C(F)F)nc12` [Example 164, 3,5-dichloro-N-(2-(difluoromethyl)-8-methyl-4-oxo-3-((3-(trifluoromethyl)pyridin-2-yl)methyl)-3,4-dihydroquinazolin-5-yl)-4-hydroxybenzamide] came in with an IC50 of 100 to 500 nM.

`O=C(Nc1cccc2ncn(Cc3ccccc3C(F)(F)F)c(=O)c12)c1cc(Cl)c(O)c(Cl)c1` [Example 18, 3,5-dichloro-4-hydroxy-N-(4-oxo-3-(2-(trifluoromethyl)benzyl)-3,4-dihydroquinazolin-5-yl)benzamide] came in with a half-inhibitory concentration (IC50) of no more than 100 nM.
